Where “and” joins values, the source holds several entries; their conditions need not be identical. Equal values may be shown once.
Tests used:
[1] = biological target: T1, hepatic lipase (HL) (Homo sapiens, UniProt P11150); experiment: Hepatic lipase (HL) enzymatic assay, fluorescent substrate A10070 in DMPG vesicles; type: biochemical; conditions: HL partially purified from conditioned media of COS cells; compound preincubated 30 min at 37° C; read-out: HL IC50
T1 construct: made in house; host or cells: COS cells (conditioned medium, partially purified)
T1 sequence (P11150 23-499): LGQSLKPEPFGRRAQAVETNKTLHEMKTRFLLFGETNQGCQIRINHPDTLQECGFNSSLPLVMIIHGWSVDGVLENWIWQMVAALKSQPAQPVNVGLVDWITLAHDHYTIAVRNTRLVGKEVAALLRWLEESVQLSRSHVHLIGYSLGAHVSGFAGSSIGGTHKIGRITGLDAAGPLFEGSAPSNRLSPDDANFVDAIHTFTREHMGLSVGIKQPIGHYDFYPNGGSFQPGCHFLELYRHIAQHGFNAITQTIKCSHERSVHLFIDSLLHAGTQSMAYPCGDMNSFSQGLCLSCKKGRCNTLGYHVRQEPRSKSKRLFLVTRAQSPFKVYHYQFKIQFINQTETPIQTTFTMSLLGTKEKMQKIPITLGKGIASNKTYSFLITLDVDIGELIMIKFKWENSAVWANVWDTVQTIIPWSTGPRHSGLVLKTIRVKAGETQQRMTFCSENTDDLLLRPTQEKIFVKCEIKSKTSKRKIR
Procedure: Endothelial lipase (EL) and hepatic lipase (HL) activities were measured using a fluorescent substrate, A10070, (Invitrogen, CA) doped into an artificial vesicle containing DMPG (Avanti Polar Lipids) as the excipient. Vesicles were prepared by combining 571 μL of 29 mM DMPG in a 1:1 mixture of MeOH and CHCl3 with 2000 μL of 1 mM A10070 in a 1:1 mixture of MeOH and CHCl3. The mixture was dried under nitrogen in multiple vials then resuspended in 20 mL total volume of 50 mM HEPES pH 8.0 buffer containing 50 mM NaCl and 0.2 mM EDTA. The sample was allowed to sit at room temperature for 15 min and then was sonicated 3×4 mins on ice with a Branson Sonicator using duty cycle 1. This preparation provides vesicles with a mole fraction of 0.11 for the FRET substrate.
The enzymatic assay was measured using 384-well white Optiplates. Each well contained 20 μL of assay buffer (50 mM HEPES pH 8.0, 50 mM NaCl and 1 mM CaCl2) and 0.25 μL of a DMSO solution containing a compound of interest. EL or HL (10 μL) was added and allowed to incubate with the compound for 30 min at 37° C. The source of EL was conditioned media obtained from HT-1080 cells that were transformed using RAGE technology (Athersys) to overexpress endogenous EL, and HL was partially purified from conditioned media obtained from COS cells overexpressing HL. The reaction was started by the addition of 10 μL of a 1:10 dilution of vesicles. The final total reaction volume was […]. The reaction rates were measured on a Gemini plate reader with an excitation wavelength of 490 nm and an emission wavelength of 530 nm. Readings were taken over a period of 60 minutes, and the slope between 300 and 900 secs of the readout was used to calculate the rate of the reaction.

[2] = biological target: T2, Endothelial lipase (EL) (Homo sapiens, UniProt Q9Y5X9); experiment: Endothelial lipase (EL) enzymatic assay, fluorescent substrate A10070 in DMPG vesicles; type: biochemical; conditions: EL from conditioned media of HT-1080 cells; compound preincubated 30 min at 37° C; read-out: EL IC50
T2 construct: HT-1080 cells that were transformed using RAGE technology (Athersys) to overexpress endogenous EL; endogenous in cells; conditioned medium used
T2 sequence (Q9Y5X9 21-500): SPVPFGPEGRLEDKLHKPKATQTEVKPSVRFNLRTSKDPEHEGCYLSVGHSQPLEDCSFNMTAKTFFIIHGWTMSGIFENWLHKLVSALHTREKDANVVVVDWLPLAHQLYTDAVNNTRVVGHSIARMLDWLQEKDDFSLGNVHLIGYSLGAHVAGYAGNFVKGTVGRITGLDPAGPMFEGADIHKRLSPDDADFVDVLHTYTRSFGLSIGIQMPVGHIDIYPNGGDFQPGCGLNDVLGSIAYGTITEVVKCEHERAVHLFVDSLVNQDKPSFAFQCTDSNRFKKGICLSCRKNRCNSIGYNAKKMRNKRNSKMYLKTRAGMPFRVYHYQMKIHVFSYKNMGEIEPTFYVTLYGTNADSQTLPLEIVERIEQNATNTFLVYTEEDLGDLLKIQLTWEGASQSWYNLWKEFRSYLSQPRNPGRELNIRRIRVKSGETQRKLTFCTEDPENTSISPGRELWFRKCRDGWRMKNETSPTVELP
Outline: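 Compounds were preincubated with enzyme for 30 min at 37° C before FRET-substrate vesicles (A10070 in DMPG, 0.11 mole fraction) were added. Reaction rates were obtained from the 300–900 sec slope of fluorescence at 490/530 nm.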

| IC50 [1] | IC50 [2] [nM] | Structure (SMILES) |
| --- | --- | --- |
| < 10 nM | < 10 | NS(=O)(=O)NCc1nnc(C(c2nc3ccc(-c4ccccc4)cc3s2)S(=O)(=O)CC(O)CO)o1 (mixture of isomers) [Example 171, N-((5-(((2,3-Dihydroxypropyl)sulfonyl)(6-phenyl-1,3-benzothiazol-2-yl)methyl)-1,3,4-oxadiazol-2-yl)methyl)sulfamide] |
| – | < 10 | NS(=O)(=O)Cc1nnc(C(c2nc3c(F)cc(-c4ccccc4)cc3s2)S(=O)(=O)Cc2ccc(C(F)(F)F)cc2)o1 (stereo not drawn) [Example 90, (5-((4-Fluoro-6-phenylbenzo[d]thiazol-2-yl)((4-(trifluoromethyl)benzyl)sulfonyl)methyl)-1,3,4-oxadiazol-2-yl)methanesulfonamide] |
| – | < 10 | O=C(NCCS(=O)(=O)C(c1nnc(CC2SC(=O)NC2=O)o1)c1nc2c(F)cc(-c3ccccc3)cc2s1)OCc1ccccc1 (stereo not drawn) [Example 92, benzyl (2-(((5-((2,4-dioxothiazolidin-5-yl)methyl)-1,3,4-oxadiazol-2-yl)(4-fluoro-6-phenyl-benzo[d]thiazol-2-yl)methyl)sulfonyl)ethyl) carbamate] |
| – | < 10 | O=C1NC(=O)C(Cc2nnc(C(c3nc4c(F)cc(-c5ccccc5)cc4s3)S(=O)(=O)Cc3ccccc3)o2)S1 (stereo not drawn) [Example 93, 5-((5-((benzylsulfonyl) (4-fluoro-6-phenyl-benzo[d]thiazol-2-yl)methyl)-1,3,4-oxadiazol-2-yl)methyl)thiazolidine-2,4-dione] |
| – | < 10 | CS(=O)(=O)C(c1nnc(CC2SC(=O)NC2=O)o1)c1nc2c(F)cc(-c3ccccc3)cc2s1 (stereo not drawn) [Example 94, 5-((5-((4-fluoro-6-phenyl-benzo[d]thiazol-2-yl) (methylsulfonyl)methyl)-1,3,4-oxadiazol-2-yl)methyl)thiazolidine-2,4-dione] |
| – | < 10 | CC(C)S(=O)(=O)C(c1nnc(CC2SC(=O)NC2=O)o1)c1nc2c(F)cc(-c3ccccc3)cc2s1 (stereo not drawn) [Example 95, 5-((5-((4-fluoro-6-phenyl-benzo[d]thiazol-2-yl) (isopropylsulfonyl)methyl)-1,3,4-oxadiazol-2-yl)methyl)thiazolidine-2,4-dione] |
| – | < 10 | Cc1cc2nc(C(c3nnc(CC4SC(=O)NC4=O)o3)S(C)(=O)=O)sc2cc1-c1ccccc1 (stereo not drawn) [Example 96, 5-((5-((5-methyl-6-phenylbenzo[d]thiazol-2-yl)(methyl-sulfonyl)methyl)-1,3,4-oxadiazol-2-yl)methyl)thiazolidine-2,4-dione] |
| – | < 10 | Cc1cc2nc(C(c3nnc(CC4SC(=O)NC4=O)o3)S(=O)(=O)Cc3ccccc3)sc2cc1-c1ccccc1 (stereo not drawn) [Example 97, 5-((5-((benzylsulfonyl) (5-methyl-6-phenyl-benzo[d]thiazol-2-yl)methyl)-1,3,4-oxadiazol-2-yl)methyl)thiazolidine-2,4-dione] |
| > 25000 nM | 168 | Cn1cc(-c2ccc3nc(C(c4nnc(CNC(=O)OC(C)(C)C)o4)S(C)(=O)=O)sc3c2)cn1 (stereo not drawn) [Example 98, tert-butyl ((5-((6-(1-methyl-1H-pyrazol-4-yl)-1,3-benzothiazol-2-yl)(methylsulfonyl)methyl)-1,3,4-oxadiazol-2-yl)methyl) carbamate] |
| 142 nM | < 10 | CS(=O)(=O)C(c1nnc(CC2SC(=O)NC2=O)o1)c1nc2ccc(C3=CCOCC3)cc2s1 (stereo not drawn) [Example 99, 5-((5-((6-(3,6-dihydro-2H-pyran-4-yl)-1,3-benzothiazol-2-yl)(methylsulfonyl)methyl)-1,3,4-oxadiazol-2-yl)methyl)-1,3-thiazolidine-2,4-dione] |
| 291 nM | 77 | CS(=O)(=O)C(c1nnc(CC2SC(=O)NC2=O)o1)c1nc2ccc(Br)cc2s1 (stereo not drawn) [Example 100, 5-((5-((6-bromo-1,3-benzothiazol-2-yl)(methylsulfonyl)methyl)-1,3,4-oxadiazol-2-yl)methyl)-1,3-thiazolidine-2,4-dione] |
| 160 nM | < 10 | CS(=O)(=O)C(c1nnc(CC2SC(=O)NC2=O)o1)c1nc2ccc(-c3ccc(=O)n(Cc4ccccc4)c3)cc2s1 (stereo not drawn) [Example 101, 5-((5-((6-(1-benzyl-6-oxo-1,6-dihydro-3-pyridinyl)-1,3-benzothiazol-2-yl)(methylsulfonyl)methyl)-1,3,4-oxadiazol-2-yl)methyl)-1,3-thiazolidine-2,4-dione] |
| < 10 nM | < 10 | Cc1nc(C)c(-c2ccc3nc(C(c4nnc(CC5SC(=O)NC5=O)o4)S(C)(=O)=O)sc3c2)s1 (stereo not drawn) [Example 102, 5-((5-((6-(2,4-dimethyl-1,3-thiazol-5-yl)-1,3-benzothiazol-2-yl)(methylsulfonyl)methyl)-1,3,4-oxadiazol-2-yl)methyl)-1,3-thiazolidine-2,4-dione] |
| < 10 nM and 36 nM | < 10 | CS(=O)(=O)C(c1nnc(CC2SC(=O)NC2=O)o1)c1nc2ccc(-c3ccnc(C#N)c3)cc2s1 (stereo not drawn) [Example 103, 4-(2-((5-((2,4-dioxo-1,3-thiazolidin-5-yl)methyl)-1,3,4-oxadiazol-2-yl)(methylsulfonyl)methyl)-1,3-benzothiazol-6-yl)-2-pyridinecarbonitrile] |
| < 10 nM and 11 nM | < 10 | CS(=O)(=O)C(c1nnc(CC2SC(=O)NC2=O)o1)c1nc2ccc(-c3cnc(OCc4ccccc4)nc3)cc2s1 (stereo not drawn) [Example 104, 5-((5-((6-(2-(benzyloxy)-5-pyrimidinyl)-1,3-benzothiazol-2-yl)(methylsulfonyl)methyl)-1,3,4-oxadiazol-2-yl)methyl)-1,3-thiazolidine-2,4-dione] |
| – | < 10 | NS(=O)(=O)NCc1nnc(C(c2nc3ccc(-c4ccc(Cl)cc4)cc3s2)S(=O)(=O)Cc2ccccc2)o1 (stereo not drawn) [Example 126, N-((5-((benzylsulfonyl)(6-(4-chlorophenyl)-1,3-benzothiazol-2-yl)methyl)-1,3,4-oxadiazol-2-yl)methyl) sulfamide] |
| – | 14900 | CC(O)(c1nnc(CNS(N)(=O)=O)o1)c1nc2ccc(-c3ccc(F)nc3)cc2s1 (stereo not drawn) [Reference 4, N-((5-(1-(6-(6-Fluoro-3-pyridinyl)-1,3-benzothiazol-2-yl)-1-hydroxyethyl)-1,3,4-oxadiazol-2-yl)methyl)sulfamide, reference compound] |

| Structure (SMILES) | IC50 [1] | IC50 [2] [nM] |
| --- | --- | --- |
| O=C1NC(=O)C(Cc2nnc(C(c3nc4cc(F)c(-c5ccccc5)cc4s3)S(=O)(=O)Cc3ccccc3)o2)S1 (stereo not drawn) [Example 91, 5-((5-((benzylsulfonyl) (5-fluoro-6-phenyl-benzo[d]thiazol-2-yl)methyl)-1,3,4-oxadiazol-2-yl)methyl) thiazolidine-2,4-dione] | – | < 10 |
| CC(c1nnc(CNS(N)(=O)=O)o1)c1nc2ccc(-c3ccc(F)nc3)cc2s1 (stereo not drawn) [Reference 3, N-((5-(1-(6-(6-Fluoro-3-pyridinyl)-1,3-benzothiazol-2-yl)ethyl)-1,3,4-oxadiazol-2-yl)methyl)sulfamide, reference compound] | – | 6520 |
